This passage reports IC50 results from patent US11447504B2, “Macrocyclic chlorine substituted indole derivatives” (Bayer Aktiengesellschaft, priority 2017, dated 2022).

For series [1], the system named is HMC-1-8. Kind of series: Antiproliferation assay 7, HMC-1-8. Format: cell-based. To be noted: HMC-1-8 cells, CellTiter-Glo, read-out: Antiproli HMC-1-8 IC50 median. A digest of the protocol: (§1)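 Proliferation was read by CellTiter-Glo luminescence after 72 hours of compound treatment at 37° C. The read was referenced to a parallel plate measured at time zero.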
For orientation: In ATP-based viability assays light output follows the ATP content of the culture.

For series [2], the system named is AMO-1. The series can be described thus: Antiproliferation assay 7, AMO-1. Format: cell-based. To be noted: AMO-1 cells, CellTiter-Glo, read-out: Antiproli AMO-1 IC50 median. In a few lines: as §1
Series [3] relates to SUDHL5. Kind of series: Induction of cytotoxicity (Assay 6), SUDHL5.
Method: Assay 6 Induction of Cytotoxicity Upon Treatment of Cells with Selected Compounds
Therefore, cytotoxicity assays were run in parallel in SUDHL5 and SUDHL10 cells.
The different cell lines were plated in culture medium (RPMI 1640 [GIBCO #22400-089]supplemented with 10% Fetal Bovine Serum) at a density of 3,300 cells in 30 μL/well in a sterile, solid black, flat bottom, polystyrene, TC-treated 384-well microplate (Corning #3571) using Multidrop Combi Reagent Dispenser. As a control, medium without cells was also added to the plate. Cells were incubated in a humidified incubator at 37° C. overnight. […] Rim wells were excluded. The cells were incubated for 5 hours in a humidified incubator at 37° C. After this incubation, 30 μL of CellTiter-Glo® Luminescent Cell Viability reagent (Promega, G7573) was added to each well using the Multidrop Combi Reagent Dispenser, followed by 15 minutes incubation on a shaker at room temperature. Finally, luminescence was read at 0.1 ms, with a gain of 3000 using the PHERAstar FS microplate reader (BMG Labtech).
Series [4] has as its system SUDHL10. Kind of series: Induction of cytotoxicity (Assay 6), SUDHL10.
The target of series [5] is BCL-XL (Homo sapiens (Human), UniProt Q07817). Kind of series: Protein-protein interaction assay BCL-XL/Bad BH3 peptide (BCL-XL Assay, TR-FRET). The conditions noted are these: read-out: BCL-XL Assay IC50 (median). Type of series: binding. For orientation: In TR-FRET formats the signal depends on donor and acceptor labels being close together.
Sequence of BCL-XL (Q07817 other isoform, or with tags, fused parts or gaps): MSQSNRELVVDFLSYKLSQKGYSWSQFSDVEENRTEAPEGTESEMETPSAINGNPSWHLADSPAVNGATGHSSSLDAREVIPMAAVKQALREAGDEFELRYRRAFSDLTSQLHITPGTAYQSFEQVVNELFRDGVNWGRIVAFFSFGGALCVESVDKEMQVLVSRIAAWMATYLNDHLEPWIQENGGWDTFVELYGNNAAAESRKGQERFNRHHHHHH
Series [6] has as its target full length endogenous MCL1 protein (Homo sapiens (Human), UniProt Q07820). Kind of series: PIxEL: protein-protein interaction in permeabilized cells by ELISA (Assay 5). Format: cell-based. To be noted: permeabilized RKO cells, biotin-BIM BH3 peptide, read-out: PIxEL IC50 (median). Here is the method:
PIxEL: Protein-Protein Interaction in Permeabilized Cells by ELISA
Most MCL1 protein molecules are localized at the mitochondria outer membrane and sequester pro-apoptotic proteins through binding of their BCL2 homology domain 3 (BH3 domain). MEB buffer (150 mM mannitol, 10 mM HEPES pH 7.5, 50 mM KCl, 20 μM EDTA, 20 μM EGTA, 5 mM potassium succinate, 0.1% protease-free BSA (SIGMA) with low dose digitonin (0.002%) permeabilizes plasma membrane while leaves live mitochondria, where MCL1 maintains its native localization and conformation. Unlike biophysical assays (e.g. TR-FRET) that use truncated recombinant MCL1 protein, this assay uses full length endogenous MCL1 protein at mitochondria outer membrane. It measures the interaction between MCL1 protein and biotinylated BIM BH3 peptide. Compounds can compete with BIM BH3 peptide to bind to MCL1 protein. This serum free assay measures the affinity between MCL1 protein and compound in permeabilized cells, therefore it is not affected by serum binding and cell permeability, and can measure the intrinsic compound affinity.
On day 1, RKO colon cancer cell line cells were plated at 0.8 million cells/ml, 100 μl/well in 96-well flat bottom TC plates (Corning). MCL1 antibody (Santa Cruz sc-12756) were diluted at 200 fold (final concentration 1 μg/ml) in carbonate buffer (Thermo Fisher Scientific, pH 9.6), and 50 μl of diluted antibody was added to each well of high bind ELISA plates ([…]). Each plate was tapped to make sure liquid covering entire bottom of wells and incubate at 37° C. overnight.
On the second day, MCL1 antibody was washed from ELISA plate. 250 μl Odyssey® Blocking Buffer (PBS) (Li-Cor) was added to each well, incubated at room temperature for at least 1 hour, then washed once with 250 μl 1×PBST. Plates with RKO cells were gently washed once with 100 μl/well PBS, once with 100 μl/well MEB buffer without digitonin, then 100 μl of MEB buffer with 0.002% digitonin was gently added to each well. Compounds were added with HP Tecan compound dispenser in 3-fold dilution series, highest dose 30 μM, 10-dose per compound in quadruplicates. Biotin-BIM peptide (synthesized by 21st Century) was added with HP Tecan compound dispenser at 0.2 μM immediately after the addition of compounds. Plates were rocked for 1 h at room temperature. Then MEB buffer was aspirated and 50 μl of CHAPS buffer (50 mM Tris-Cl, pH 7.4, 150 mM NaCl, 1% CHAPS, 1 mM EDTA, 1 mM EGTA, complete protease inhibitors (Roche), PhosSTOP (Roche)) was added to each well. […]
On the third day, ELISA plates were washed once with 250 μl 1×PBST. […] Plates were shaken for 1 minute then luminescence was measured by Envision plate reader (HP). […] IC50 was calculated using Graphic Pad PRISM software.
(ELISA stands for enzyme-linked immunosorbent assay.)

Setting [7] is: read-out: Cytotox SUDHL5 IC50 (median), SUDHL5 cells, 5 hours, CellTiter-Glo.
Where [8] appears, read: read-out: Cytotox SUDHL10 IC50 (median), SUDHL10 cells, 5 hours, CellTiter-Glo.

Structures can show the parent of a compound that is named as a salt. Where two headings read alike, the source gives them in different places. A value given as a limit tells only on which side of the number the result lay.

Sequence of full length endogenous MCL1 protein (Q07820 whole entry): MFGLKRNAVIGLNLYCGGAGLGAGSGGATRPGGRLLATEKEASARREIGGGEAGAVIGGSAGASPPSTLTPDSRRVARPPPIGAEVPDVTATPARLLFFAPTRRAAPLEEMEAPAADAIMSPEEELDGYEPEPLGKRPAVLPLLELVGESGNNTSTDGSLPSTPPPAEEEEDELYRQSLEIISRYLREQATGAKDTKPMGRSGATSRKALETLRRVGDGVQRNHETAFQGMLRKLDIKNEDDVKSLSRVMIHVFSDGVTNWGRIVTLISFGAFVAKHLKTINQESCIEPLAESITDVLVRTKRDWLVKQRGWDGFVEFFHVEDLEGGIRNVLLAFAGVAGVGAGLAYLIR

Usually IC50 stands for the point on the concentration scale where inhibition reaches its midpoint. Consider `Cc1c2c(nn1C)N(C)CCCCCn1c(C(=O)O)c(CCCOc3cccc4ccccc34)c3ccc(Cl)c-2c31` (racemic) [Example 71, (rac)-4-chloro-2,3,15-trimethyl-7-{3-[(naphthalen-1-yl)oxy]propyl}-10,11,12,13,14,15-hexahydro-2H-pyrazolo[4′,3′:4,5][1,6]diazacycloundecino[3,2,1-hi]indole-8-carboxylic acid], for which the IC50 in series [1] (72 h) is 22000 nM; in series [2] (Homo sapiens, AMO1, 72 h) it was 5000 nM; in series [3] (Homo sapiens, SU-DHL-5, 5 h, read-out: Cytotox SUDHL5 IC50 (median), SUDHL5 cells, 5 hours, CellTiter-Glo) it was 690 nM; in series [4] (Homo sapiens, SU-DHL10, 5 h, read-out: Cytotox SUDHL10 IC50 (median), SUDHL10 cells, 5 hours, CellTiter-Glo) it was 2700 nM; in series [5], over 20000 nM; in series [6] (printed in uM), over 30 µM.
Regarding `Cc1c2c(nn1C)N(C)CCCCCn1c(C(=O)O)c(CCCOc3cccc4cc(F)ccc34)c3ccc(Cl)c-2c31` (racemic) [Example 74, (rac)-4-chloro-7-{3-[(6-fluoronaphthalen-1-yl)oxy]propyl}-2,3,15-trimethyl-10,11,12,13,14,15-hexahydro-2H-pyrazolo[4′,3′:4,5][1,6]diazacycloundecino[3,2,1-hi]indole-8-carboxylic acid], the IC50 in series [1] (72 hours) was 5400 nM; in series [2] (72 hours), 1100 nM; in series [3] (setting [7]) it was 1000 nM; in series [4] (setting [8]), 1300 nM; in series [5], over 20000 nM; in series [6], 0.214 µM.
Consider `CCc1c2c(nn1C)N(C)CCCCCn1c(C(=O)O)c(CCCOc3cccc4cc(F)ccc34)c3ccc(Cl)c-2c31` (single isomer, unassigned; enantiomer 1) [Example 78, 4-chloro-3-ethyl-7-{3-[(6-fluoronaphthalen-1-yl)oxy]propyl}-2,15-dimethyl-10,11,12,13,14,15-hexahydro-2H-pyrazolo[4′,3′:4,5][1,6]diazacycloundecino[3,2,1-hi]indole-8-carboxylic acid-N-ethylethanamine Salt—Enantiomer 1], for which the IC50 in series [1] (72 hours) is 2400 nM; in series [2] (72 hours), 770 nM; in series [3] (setting [7]), 310 nM; in series [4] (setting [8]), 700 nM; in series [5] it was over 20000 nM; in series [6], 0.037 µM.
In the case of `Cc1c2c(nn1C)N(C)CCCCCn1c(C(=O)O)c(CCCOc3cccc4cc(F)ccc34)c3ccc(Cl)c-2c31` [Example 75, (+)-4-chloro-7-{3-[(6-fluoronaphthalen-1-yl)oxy]propyl}-2,3,15-trimethyl-10,11,12,13,14,15-hexahydro-2H-pyrazolo[4′,3′:4,5][1,6]diazacycloundecino[3,2,1-hi]indole-8-carboxylic acid-N-ethylethanamine salt], the IC50 in series [1] (72 hours) was 3400 nM; in series [2] (72 hours) it was 1100 nM; in series [3] (setting [7]), 380 nM; in series [4] (setting [8]), 810 nM; in series [5] it was over 20000 nM; in series [6], 0.146 µM.
